Values of other authors as cited in PMC4486055 (Cancer chemotherapy and pharmacology, 2014).

Details: clinical development; cited from earlier work

## CN[C@@H]1C[C@H]2O[C@@](C)([C@@H]1OC)n1c3ccccc3c3c4c(c5c6ccccc6n2c5c31)C(=O)N[C@H]4O [UCN-01, 7-hydroxyl-staurosporine]
  Dose-limiting toxicity: prominent dose-limiting hyperglycemia
